Converted amounts (≈) assume the structure as drawn. Each block holds one molecule with its values, some of them ahead of it.
How the values were obtained:
[1] = Thermodynamic solubility of compound in water at 2 mg after 24 hrs; type: physicochemical; conditions: read-out: Therm_solubility
[2] = Thermodynamic solubility of compound in plON buffer at 2 mg after 24 hrs; type: physicochemical; conditions: read-out: Therm_solubility
[3] = Selectivity index, ratio of CC50 for human CEM-SS cells to EC50 for Antiviral activity against HIV1 3B infected in human CEM-SS cells; type: toxicity, cell-based; conditions: for selectivity ratio: CEM-SS cells, read-out: Ratio CC50/EC50
[4] = system: Human immunodeficiency virus 1; assay: Antiviral activity against HIV1 3B infected in human CEM-SS cells assessed as reduction in cytopathic effect after 4 days; type: functional, organism-based
[5] = Cytotoxicity against human CEM-SS cells assessed as reduction in cell viability by XTT assay; type: cell-based
[6] = Tmax in Sprague-Dawley rat at 1 mg/kg, iv up to 24 hrs by LC-MS/MS analysis; type: ADME, organism-based; conditions: in vivo
[7] = Stability in rat liver microsomes assessed as parent compound remaining at 1 uM up to 24 hrs by LC-MS/MS analysis; type: ADME, Microsome; conditions: read-out: Stabilty
Cytochrome P450 1A2 = molecular target: T1, Cytochrome P450 1A2 (Homo sapiens, UniProt P05177); assay: Inhibition of CYP1A2 in human liver microsomes using phenacetin as substrate incubated for 30 mins by LC-MS/MS analysis; type: ADME
T1 sequence (P05177 whole entry): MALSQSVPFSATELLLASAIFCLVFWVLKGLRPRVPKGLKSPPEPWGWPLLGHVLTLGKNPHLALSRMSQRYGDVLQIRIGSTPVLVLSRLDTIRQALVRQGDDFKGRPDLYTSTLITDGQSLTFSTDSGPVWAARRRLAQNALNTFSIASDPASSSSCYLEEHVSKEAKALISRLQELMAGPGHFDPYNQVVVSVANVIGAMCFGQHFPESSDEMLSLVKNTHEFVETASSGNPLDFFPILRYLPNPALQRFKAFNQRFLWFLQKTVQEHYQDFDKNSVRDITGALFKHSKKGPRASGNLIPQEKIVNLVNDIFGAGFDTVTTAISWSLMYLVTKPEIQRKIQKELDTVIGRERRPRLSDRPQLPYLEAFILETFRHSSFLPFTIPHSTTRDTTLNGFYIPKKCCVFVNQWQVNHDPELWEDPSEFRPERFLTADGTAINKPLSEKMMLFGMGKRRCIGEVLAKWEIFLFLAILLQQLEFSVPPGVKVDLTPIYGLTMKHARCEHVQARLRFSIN

[8] = Oral bioavailability in Sprague-Dawley rat at 5 mg/kg up to 24 hrs by LC-MS/MS analysis; type: ADME, organism-based; conditions: in vivo
[9] = Stability in rat plasma assessed as parent compound remaining at 1 uM up to 24 hrs by LC-MS/MS analysis; type: ADME, cell-free; conditions: read-out: Stabilty
[10] = Drug concentration in Sprague-Dawley rat at 1 mg/kg, iv after 24 hrs by LC-MS/MS analysis; type: ADME, organism-based; conditions: in vivo, read-out: Drug uptake
Cytochrome P450 2C8 = molecular target: T2, Cytochrome P450 2C8 (Homo sapiens, UniProt P10632); assay: Inhibition of CYP2C8 in human liver microsomes using amodiaquine as substrate incubated for 30 mins by LC-MS/MS analysis; type: ADME
T2 sequence (P10632 whole entry): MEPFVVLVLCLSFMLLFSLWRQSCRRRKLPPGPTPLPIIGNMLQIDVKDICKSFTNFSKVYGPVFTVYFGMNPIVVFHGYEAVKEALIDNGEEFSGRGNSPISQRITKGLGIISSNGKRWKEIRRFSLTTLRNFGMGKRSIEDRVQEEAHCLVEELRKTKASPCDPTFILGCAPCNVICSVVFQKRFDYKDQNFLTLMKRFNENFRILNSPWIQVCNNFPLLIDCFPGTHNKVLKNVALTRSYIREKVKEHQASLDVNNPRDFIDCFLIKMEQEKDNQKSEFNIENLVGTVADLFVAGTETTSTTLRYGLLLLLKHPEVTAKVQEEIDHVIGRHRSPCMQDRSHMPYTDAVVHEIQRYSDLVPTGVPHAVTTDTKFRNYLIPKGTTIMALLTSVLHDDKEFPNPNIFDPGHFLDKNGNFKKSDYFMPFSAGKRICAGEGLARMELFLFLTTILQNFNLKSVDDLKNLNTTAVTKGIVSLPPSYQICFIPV

Cytochrome P450 2C9 = Cytochrome P450 2C9 (Homo sapiens, UniProt P11712); assay: Inhibition of CYP2C9 in human liver microsomes using tolbutamide as substrate incubated for 30 mins by LC-MS/MS analysis; type: ADME
Cytochrome P450 2C9, sequence (P11712 whole entry): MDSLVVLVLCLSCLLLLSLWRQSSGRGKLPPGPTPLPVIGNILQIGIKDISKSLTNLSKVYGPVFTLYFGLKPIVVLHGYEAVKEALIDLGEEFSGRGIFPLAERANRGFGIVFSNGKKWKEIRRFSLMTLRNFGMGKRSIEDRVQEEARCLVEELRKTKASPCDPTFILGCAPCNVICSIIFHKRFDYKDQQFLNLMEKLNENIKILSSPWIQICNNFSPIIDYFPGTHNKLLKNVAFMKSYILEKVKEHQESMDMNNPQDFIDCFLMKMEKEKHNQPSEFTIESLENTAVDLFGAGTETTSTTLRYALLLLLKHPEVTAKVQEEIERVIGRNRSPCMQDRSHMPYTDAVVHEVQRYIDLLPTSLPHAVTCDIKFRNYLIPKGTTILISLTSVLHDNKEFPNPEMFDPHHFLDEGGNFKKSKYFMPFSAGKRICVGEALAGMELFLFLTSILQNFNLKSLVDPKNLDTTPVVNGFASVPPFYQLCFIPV

Cytochrome P450 2C19 = Cytochrome P450 2C19 (Homo sapiens, UniProt P33261); assay: Inhibition of CYP2C19 in human liver microsomes using S-mephenytoin as substrate incubated for 30 mins by LC-MS/MS analysis; type: ADME
Cytochrome P450 2C19, sequence (P33261 whole entry): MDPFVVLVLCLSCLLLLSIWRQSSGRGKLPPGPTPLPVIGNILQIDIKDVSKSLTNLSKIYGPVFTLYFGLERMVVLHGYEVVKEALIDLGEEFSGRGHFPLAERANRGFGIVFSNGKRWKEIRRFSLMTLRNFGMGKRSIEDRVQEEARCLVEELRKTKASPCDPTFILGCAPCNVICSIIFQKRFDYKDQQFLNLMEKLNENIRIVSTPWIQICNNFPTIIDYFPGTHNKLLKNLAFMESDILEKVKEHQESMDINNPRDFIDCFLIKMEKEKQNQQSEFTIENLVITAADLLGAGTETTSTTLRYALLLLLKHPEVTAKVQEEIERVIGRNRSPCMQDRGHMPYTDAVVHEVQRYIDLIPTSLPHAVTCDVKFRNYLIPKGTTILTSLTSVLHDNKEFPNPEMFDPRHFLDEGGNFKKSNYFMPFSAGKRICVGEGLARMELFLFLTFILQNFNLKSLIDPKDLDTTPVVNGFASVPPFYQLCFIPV

[11] = Drug concentration in Sprague-Dawley rat at 1 mg/kg, iv after 8 hrs by LC-MS/MS analysis; type: ADME, organism-based; conditions: in vivo, read-out: Drug uptake
[12] = Stability in human liver microsomes assessed as parent compound remaining at 1 uM up to 24 hrs by LC-MS/MS analysis; type: ADME, Microsome; conditions: read-out: Stabilty
[13] = Drug concentration in Sprague-Dawley rat at 5 mg/kg, po after 8 hrs by LC-MS/MS analysis; type: ADME, organism-based; conditions: in vivo, read-out: Drug uptake
[14] = Stability in human plasma assessed as parent compound remaining at 1 uM up to 24 hrs by LC-MS/MS analysis; type: ADME, cell-free; conditions: read-out: Stabilty
[15] = Elimination rate constant Sprague-Dawley rat at 1 mg/kg, iv up to 24 hrs by LC-MS/MS analysis; type: ADME, organism-based; conditions: in vivo
[16] = Drug concentration in Sprague-Dawley rat at 5 mg/kg, po after 24 hrs by LC-MS/MS analysis; type: ADME, organism-based; conditions: in vivo, read-out: Drug uptake
Cytochrome P450 2D6 = Cytochrome P450 2D6 (Homo sapiens, UniProt P10635); assay: Inhibition of CYP2D6 in human liver microsomes using dextromethorphan as substrate incubated for 30 mins by LC-MS/MS analysis; type: ADME
Cytochrome P450 2D6, sequence (P10635 whole entry): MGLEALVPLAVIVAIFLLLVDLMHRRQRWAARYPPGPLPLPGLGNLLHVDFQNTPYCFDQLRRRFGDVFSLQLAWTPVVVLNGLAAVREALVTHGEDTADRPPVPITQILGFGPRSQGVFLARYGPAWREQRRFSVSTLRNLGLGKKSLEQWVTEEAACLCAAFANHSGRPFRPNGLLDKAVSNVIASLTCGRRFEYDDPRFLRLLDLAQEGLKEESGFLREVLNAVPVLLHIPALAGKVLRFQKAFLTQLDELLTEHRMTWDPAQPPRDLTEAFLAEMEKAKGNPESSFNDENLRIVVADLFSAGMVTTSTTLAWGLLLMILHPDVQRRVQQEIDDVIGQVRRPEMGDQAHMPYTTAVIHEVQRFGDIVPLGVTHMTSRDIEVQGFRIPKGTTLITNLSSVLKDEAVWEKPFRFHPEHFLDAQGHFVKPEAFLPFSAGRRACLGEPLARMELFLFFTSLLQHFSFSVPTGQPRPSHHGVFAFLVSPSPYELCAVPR

[17] = Tmax in Sprague-Dawley rat at 5 mg/kg, po up to 24 hrs by LC-MS/MS analysis; type: ADME, organism-based; conditions: in vivo
[18] = Protein binding in rat plasma at 1 uM after 4 hrs by LC-MS/MS analysis; type: ADME, cell-free; conditions: read-out: PPB (converted)
[19] = Elimination rate constant Sprague-Dawley rat at 5 mg/kg, po up to 24 hrs by LC-MS/MS analysis; type: ADME, organism-based; conditions: in vivo
[20] = Protein binding in human plasma at 1 uM after 4 hrs by LC-MS/MS analysis; type: ADME, cell-free; conditions: read-out: PPB
Cytochrome P450 3A4 = Cytochrome P450 3A4 (Homo sapiens, UniProt P08684); assay: Inhibition of CYP3A4 in human liver microsomes using midazolam as substrate incubated for 30 mins by LC-MS/MS analysis; type: ADME
Cytochrome P450 3A4, sequence (P08684 whole entry): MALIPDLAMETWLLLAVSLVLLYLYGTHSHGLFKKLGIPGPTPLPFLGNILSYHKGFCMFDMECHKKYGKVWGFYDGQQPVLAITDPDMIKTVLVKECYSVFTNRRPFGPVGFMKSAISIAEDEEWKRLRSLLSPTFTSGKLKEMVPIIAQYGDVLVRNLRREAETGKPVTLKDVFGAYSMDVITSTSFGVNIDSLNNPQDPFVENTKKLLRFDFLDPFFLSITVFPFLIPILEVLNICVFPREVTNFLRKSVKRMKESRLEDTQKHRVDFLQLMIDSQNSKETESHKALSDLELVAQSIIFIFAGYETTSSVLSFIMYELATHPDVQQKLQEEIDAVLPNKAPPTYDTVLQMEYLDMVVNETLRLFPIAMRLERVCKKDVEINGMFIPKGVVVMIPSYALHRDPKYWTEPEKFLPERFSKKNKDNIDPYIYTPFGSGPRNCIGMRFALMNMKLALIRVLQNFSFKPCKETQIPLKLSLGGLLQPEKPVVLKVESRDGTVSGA

[21] = Human immunodeficiency virus 1, 3B, CEM-SS, 96 h

SMILES: C[C@H]1CO[C@@H]2Cn3cc(C(=O)NCc4nn(C)c(Cl)c4Cl)c(=O)c(O)c3C(=O)N12
solubility thermodynamic at 24 h [1]: 318 µg/mL (≈ 719 µM)
solubility thermodynamic at 24 h [2]: 318 µg/mL (≈ 719 µM)
selectivity ratio [3]: > 16.9
EC50 [4, 21]: 0.59 nM
CC50 [5]: > 10 nM

SMILES: C[C@@H]1CCO[C@H]2Cn3cc(C(=O)NCc4ccc(F)nc4F)c(=O)c(O)c3C(=O)N12
solubility thermodynamic at 24 h [1]: 57 µg/mL (≈ 136 µM)
solubility thermodynamic at 24 h [2]: 80 µg/mL (≈ 190 µM)
selectivity ratio [3]: > 1.9
EC50 [4, 21]: 5.15 nM
CC50 [5]: > 10 nM

SMILES: C[C@H]1CO[C@@H]2Cn3cc(C(=O)NCc4ncc(F)cc4F)c(=O)c(O)c3C(=O)N12
solubility thermodynamic at 24 h [1]: 131 µg/mL (≈ 322 µM)
solubility thermodynamic at 24 h [2]: 196 µg/mL (≈ 482 µM)

SMILES: C[C@H]1CO[C@@H]2Cn3cc(C(=O)NCc4c(F)cncc4F)c(=O)c(O)c3C(=O)N12
solubility thermodynamic at 24 h [1]: 347 µg/mL (≈ 854 µM)
solubility thermodynamic at 24 h [2]: 380 µg/mL (≈ 935 µM)
selectivity ratio [3]: > 3.8
EC50 [4, 21]: 2.63 nM
CC50 [5]: > 10 nM

Further lines, with some results ahead:

Tmax [6]: 4.8 min
solubility thermodynamic at 24 h [1]: 269 µg/mL (≈ 662 µM)
remaining at 24 h, 1 µM [7]: 83.8%
IC50 (Cytochrome P450 1A2): > 10000 nM
bioavailability [8]: 17.5%
remaining at 24 h, 1 µM [9]: 94.5%
concentration at 24 h [10]: 5430 ng/mL
IC50 (Cytochrome P450 2C8): > 10000 nM
solubility thermodynamic at 24 h [2]: 232 µg/mL (≈ 571 µM)
IC50 (Cytochrome P450 2C9): > 10000 nM
IC50 (Cytochrome P450 2C19): > 10000 nM
concentration at 8 h [11]: 8620 ng/mL
remaining at 24 h, 1 µM [12]: 84%
concentration at 8 h [13]: 7910 ng/mL
remaining at 24 h, 1 µM [14]: 95%
k el at 24 h [15]: 8.33e-06 s⁻¹
EC50 ([4]; cem-ss): 0.24 nM
concentration at 24 h [16]: 4440 ng/mL
IC50 (Cytochrome P450 2D6): > 10000 nM
Tmax [17]: 3 h
fraction unbound at 4 h, 1 µM [18]: 0.011
k el at 24 h [19]: 1.11e-05 s⁻¹
fraction unbound at 4 h, 1 µM [20]: 0.001
IC50 (Cytochrome P450 3A4): > 10000 nM
SMILES: C[C@H]1CO[C@@H]2Cn3cc(C(=O)NCc4ccc(F)nc4F)c(=O)c(O)c3C(=O)N12
Ratio CC50/EC50 [3]: > 41.7
CC50 [5]: > 10 nM

solubility thermodynamic at 24 h [1]: 10 µg/mL (≈ 23.8 µM)
solubility thermodynamic at 24 h [2]: 6 µg/mL (≈ 14.3 µM)
EC50 [4, 21]: 2.17 nM
SMILES: C[C@H]1CO[C@@H]2Cn3cc(C(=O)NCc4cccc5cccnc45)c(=O)c(O)c3C(=O)N12
selectivity ratio [3]: > 4.6
CC50 [5]: > 10 nM

solubility thermodynamic at 24 h [1]: 31 µg/mL (≈ 73.7 µM)
solubility thermodynamic at 24 h [2]: 8 µg/mL (≈ 19 µM)
SMILES: C[C@H]1CO[C@@H]2Cn3cc(C(=O)NCc4ccnc5ccccc45)c(=O)c(O)c3C(=O)N12

solubility thermodynamic at 24 h [1]: 33 µg/mL (≈ 87.9 µM)
solubility thermodynamic at 24 h [2]: 24 µg/mL (≈ 63.9 µM)
EC50 [4, 21]: 1.44 nM
SMILES: C[C@H]1CO[C@@H]2Cn3cc(C(=O)NCc4cccs4)c(=O)c(O)c3C(=O)N12
selectivity ratio [3]: > 6.9
CC50 [5]: > 10 nM

— ChEMBL document CHEMBL4680174, “Synthesis, biological evaluation and in silico modeling of novel integrase strand transfer inhibitors (INSTIs)” (Eur J Med Chem, 2020)
